Experimental data reported in BigSolDB 2.1.

O=[N+]([O-])/N=C1\NCCN1Cc1ccc(Cl)nc1
solubility (mole fraction)
Details | 283.15 K | 288.15 K | 293.15 K | 298.15 K | 303.15 K | 308.15 K | 313.15 K | 318.15 K | 323.15 K
in acetone | 0.00862 | 0.0102 | 0.012 | 0.014 | 0.0163 | 0.0188 | 0.0218 | 0.0249 | 0.0285
in ethanol | 0.000303 | 0.0004 | 0.00053 | 0.000699 | 0.000895 | 0.00115 | 0.00148 | 0.00191 | 0.00238
in methanol | 0.000689 | 0.000882 | 0.00112 | 0.00141 | 0.00177 | 0.00221 | 0.00274 | 0.00339 | 0.0041
in n-propanol | 0.000266 | 0.000362 | 0.000475 | 0.00064 | 0.000837 | 0.00109 | 0.0014 | 0.00179 | 0.00228
in water | 6.79e-06 | 9.67e-06 | 1.36e-05 | 1.87e-05 | 2.56e-05 | 3.43e-05 | 4.71e-05 | 6.23e-05 | 8.15e-05
